The record followed here is patent publication US8598355B2, “Amide compound” (Astellas Pharma Inc., priority 2008, dated 2013).

The structures appear in SMILES notation.

Data set [1] addresses T1, rat EP4 receptor (Rattus norvegicus, UniProt P43114). Description: Rat EP4 receptor antagonistic activity by measurement of cAMP amount (rEP4 cAMP HTRF assay, CHO cells). The format is cell-based. Details: expressed in transfected cells. Conditions: inhibition of cAMP, PGE2 100 nM, CHO cells expressing rat EP4. How it is done: Evaluation Test of Rat EP4 Receptor Antagonistic Activity by Measurement of cAMP Amount
CHO cells in which rat EP4 had been forced to be expressed were seeded in 96-well plates at 2×10^4 cells/100 μL and cultured overnight. The culture medium was replaced with 2 μM Indomethacin/0.1% BSA/alpha-MEM, and further, after 60 minutes, replaced with 1 mM IBMX/2 μM Indomethacin/0.1% BSA/alpha-MEM. After 10 minutes, the test compound was added, and further, after 10 minutes, PGE2 was added at a final concentration of 100 nM. The cells were cultured and reacted in a CO2 incubator (37° C., 5% CO2). After 30 minutes, the culture medium was removed and 100 μL/well of 0.2% Triton X-PBS was added for lysis of the cells. The cAMP contained in this cell lysis solution was measured with a cAMP HiRange kit (Cisbio international). The cell lysis solution was disperesed at 10 μL each into a 384-well U-bottom black microplate (Corning), and a d2 reagent and an europium cryptate reagent were added in this order to each well, each in an amount of 5 μL. It was incubated at room temperature for 60 minutes under light shielding. After incubation, the fluorescence of the cryptate at 620 nm and the fluorescence of the d2 at 655 nm were measured using ARVO1420 (PerkinElmer). The cAMPs of 280, 70, 17.5, 4.38, 1.09, 0.27, and 0.068 nM were measured simultaneously for creating a standard curve. The inhibitory rates were calculated by determining the cAMP amount of each test sample to the value obtained by subtracting the cAMP amount of the group without addition of PGE2 from the cAMP amount of the group with addition of PGE2 of 100 nM. IC50 values are calculated by a Logistic regression method.
In general terms: TR-FRET usually uses a lanthanide donor and a delayed reading to cut background.

The target of data set [2] is T1, rat EP4 receptor. The data set is described as follows: Evaluation test of rat EP4 receptor affinity ([3H]PGE2 binding, membrane fraction of HEK293 cells expressing rat EP4). More on the design: expressed in transfected cells; host or cells: HEK293 cells, transient transfection with Lipofectamine 2000; membrane fraction. Conditions: [3H]PGE2 0.3 nM. How it is done: Evaluation Test of Rat EP4 Receptor Affinity
Cell Culturing and Transfection
Using a 10 cm collagen-coated dish (Asahi Glass), HEK293 cells were cultured in D-MEM culture medium, the culture medium was removed at a confluence (90 to 100% density state) and washed with a phosphate buffer saline (PBS), and then the cells were detached with N,N,N′,N′-tetrakis(carboxymethyl)ethylenediamine (EDTA). The number of the cells were counted and seeded on a 15 cm collagen-coated dish to a confluence of 70%. On the next day, to an Opti-MEM culture medium at 1.2 mL/dish was added Lipofectamine 2000 (Invitrogen) at 60 μL/dish, followed by leaving to stand at room temperature for 5 minutes. A plasmid in which rat EP4 (Sequence Number 1) had been inserted into a TA cloning site of pcDNA3.1-V5-His-topo was added thereto at 15 μg/dish. After leaving to stand at room temperature for 30 minutes, the resultant was added to the dish and cultured for 20 to 24 hours. The cell culture was carried out in a CO2 incubator (37° C., 5% CO2).
Preparation of Membrane Fraction
The culture medium was removed by suction, 10 mL of cooled PBS was added thereto per 15 cm dish, and the cells were scraped using a cell scraper (Sumitomo Bakelite). They were washed with cooled PBS (1,200 rpm, 4° C., 5 min), and then suspended in 6 mL of cooled 20 mM Tris-HCl (pH 7.4; Nakalai Tesque Inc., including 5 mM EDTA (Nakalai Tesque Inc.) per dish and the resultant was homogenized using a Polytron and the homogenate was centrifuged (26,000 rpm, 20 min, 4° C.). The obtained precipitate was resuspended in cooled 20 mM Tris-HCl and homogenized again using a Polytron, and the homogenate was centrifuged (26,000 rpm, 20 min, 4° C.). The obtained precipitate was resuspended in 50 mM HEPES (pH 7.5; Dojindo Laboratories) at 1 mL per dish, homogenized using a Polytron, and freeze-stored at −80° C. as a membrane fraction. At this time, a part thereof was used for the measurement of the protein concentration. Measurement of the protein concentration was carried out in duplicate using a Bio-Rad Protein assay kit (Bio-Rad Laboratories) in accordance with the appended standard Protocol.
[^3H]PGE2 50 μL (final concentration 0.3 nM; Perkin Elmer), 100 μL (20 μg/well) of a membrane fraction prepared from the rat EP4 expression cell and 50 μL of a test compound were mixed in a 96-well microplate (Sumitomo Bakelite), incubated at room temperature for 1 hour, filtered by suction on a UniFilter-96 GF/B (Perkin Elmer) using a FilterMate Harvester (Perkin Elmer), and then washed three times with 300 μL/well of a cooled assay buffer. Dilution of [^3H]PGE2 and the membrane fraction was carried out using an assay buffer (50 mM HEPES, 10 mM MgCl2), and dilution of the test compound and the unlabeled PGE2 was carried out using DMSO and an assay buffer. Further, in the case of the addition of a human serum albumin (HSA), dilution was carried out using an assay buffer containing 4% HSA (final concentration 1%; Sigma). The UniFilter-96 GF/B was treated preliminarily by washing twice with 200 μL/well of a cooled assay buffer. The UniFilter-96 GF/B after filtration was dried in a dryer overnight, 50 μL/well of MicroScint20 (Perkin Elmer) was added thereto, and then the radioactivity was measured using a TopCount (Perkin Elmer). For measurement of the non-specific binding, an unlabeled PGE2 (final concentration 1 μM; Cayman) was added. All of the measurements were carried out in duplicate, and the specific binding amount was determined by subtracting the non-specific binding amount from the total binding amount. The Ki value was calculated according to the general methods.
In the connection, Ex represents the below-described Example Compound number.

Another data set concerns the target T2, EP4 receptor (Homo sapiens, UniProt P35408).
T2 construct: endogenous in cells; host or cells: Jurkat cells (human leukemia T lymphoma), no transfection described
The data set is described as follows: EP4 receptor antagonistic activity by measurement of cAMP amount in human Jurkat cells (HTRF). Particulars: inhibition of cAMP, PGE2 100 nM. The format is cell-based. How it is done:
Evaluation Test of EP4 Receptor Antagonistic Activity by Measurement of cAMP Amount in Human Jurkat Cells
Jurkat cells (derived from human leukemia T lymphoma) were cultured with RPMI1640 (added with 10% fetal bovine serum) using a F75 flask. After proliferation to semiconfluency, indomethacin having a final concentration of 5 μM was added thereto, and the cells were further cultured for 18 hours. The cells were collected in a 15-mL Spitz tube, prepared to be 1×10^6 cells/mL using a Cell Banker (Mitsubishi Kagaku Iatron), and stored at −80° C. until used for assay. The cells were cultured in a CO2 incubator (37° C., 5% CO2).
A cAMP HiRange kit (Cisbio international) was used for cAMP measurement. A test compound, PGE2, and the cells were diluted and prepared with an assay buffer. The test compound was prepared to have a 3-fold concentration relative to the final concentration, PGE2 was prepared to be 300 nM, and the Jurkat cells frozen stored were prepared to be 1×10^6 cells/mL by thawing them at 37° C. To a 384-well U-bottom black microplate (Corning) were added the test compound, the cells, and PGE2 in this order in each in an amount of 5 μL, followed by shaking with a plate shaker and incubating at room temperature for 30 minutes. After incubation, 5 μL of a d2 reagent which had been diluted 0.6-fold with a lysis buffer was added to each well, followed by shaking with a plate shaker. Subsequently, 5 μL of an europium cryptate reagent which had been diluted 0.6-fold with a lysis buffer was added to each well, followed by shaking with a plate shaker and incubating at room temperature for 60 minutes under light shielding. After incubation, the fluorescence of the cryptate at 620 nm and the fluorescence of the d2 at 655 nm were measured using ARVO1420 (PerkinElmer). The cAMPs of 280, 70, 17.5, 4.38, 1.09, 0.27, and 0.068 nM were measured simultaneously for creating a standard curve. All measurements were performed in quadruplicate, and inhibitory rates were calculated by determining the cAMP amount of each test sample to the value obtained by subtracting the cAMP amount of the group without addition of PGE2 from the cAMP amount of the group with addition of PGE2 of 100 nM. IC50 values were calculated by a Logistic regression method.
In this connection, as the “assay buffer” and “lysis buffer” above, those as shown below were used:
Assay buffer; 1×HBSS (Hanks buffered salt solution, Nissui Pharmaceutical Co., Ltd.), 20 mM HEPES (pH 7.4, Nakarai Tesque), 0.5 mM IBMX (3-isobutyl-1-methylxanthine, WAKO), 0.02% CHAPS (Sigma), 0.1% Bovine serum albumin (Sigma), 2 μM Indomethacin (Sigma)
Lysis buffer; 50 mM NaPO4, 0.8 M KF, 1% Triton X-100, 0.2% Bovine serum albumin

For data set [3], the target named is T1, rat EP4 receptor. Description: In vivo rat EP4 receptor antagonistic activity (ONO-4819/LPS, plasma TNF-α). Particulars: SD rat, oral. The protocol:
Evaluation Test of In Vivo Rat EP4 Receptor Antagonistic Activity
A solution of PEG 400:20% Tween 80:aqueous 1 M NaHCO3 solution=1:4:5 of a test compound was orally administered to a SD rat (male, 6-week old) under non-fasting conditions, and after 1 hour, ONO-4819 was administered subcutaneously to the back of the rat. After 30 minutes, Lipopolysaccharide (LPS, 0.01 mg/kg) was administered to the tail vein without anesthesia, and after 60 minutes, 0.5 mL of heparin blood was collected from the fundus under ether anesthesia. The blood sample was centrifuged (3000 rpm, 10 minutes) to separate the plasma, and then the TNF-α concentration in the rat plasma was measured by an ELISA kit (see Hepatology Research Journal, vol. 21, 252-260, 2001). A value obtained by subtracting the TNF-α concentration of the group treated with ONO-4819 from the TNF-α concentration of the group not treated with ONO-4819 was taken as 100%, and the inhibitory rates to the value were calculated for the test compounds.
In this connection, Ex represents the below-described Example compound number.

T1 sequence (P43114 whole entry): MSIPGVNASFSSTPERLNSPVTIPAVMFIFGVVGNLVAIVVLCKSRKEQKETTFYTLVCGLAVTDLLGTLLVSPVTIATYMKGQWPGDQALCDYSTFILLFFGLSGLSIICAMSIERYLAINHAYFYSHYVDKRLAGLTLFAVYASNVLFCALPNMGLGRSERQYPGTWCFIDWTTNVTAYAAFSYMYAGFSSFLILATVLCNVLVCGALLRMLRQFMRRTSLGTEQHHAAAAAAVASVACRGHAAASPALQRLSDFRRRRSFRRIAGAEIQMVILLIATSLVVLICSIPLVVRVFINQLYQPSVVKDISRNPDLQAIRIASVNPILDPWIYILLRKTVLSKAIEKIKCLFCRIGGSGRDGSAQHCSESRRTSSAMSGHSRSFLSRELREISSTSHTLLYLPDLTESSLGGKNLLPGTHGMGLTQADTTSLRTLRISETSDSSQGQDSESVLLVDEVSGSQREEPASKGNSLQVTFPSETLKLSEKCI
T2 sequence (P35408 whole entry): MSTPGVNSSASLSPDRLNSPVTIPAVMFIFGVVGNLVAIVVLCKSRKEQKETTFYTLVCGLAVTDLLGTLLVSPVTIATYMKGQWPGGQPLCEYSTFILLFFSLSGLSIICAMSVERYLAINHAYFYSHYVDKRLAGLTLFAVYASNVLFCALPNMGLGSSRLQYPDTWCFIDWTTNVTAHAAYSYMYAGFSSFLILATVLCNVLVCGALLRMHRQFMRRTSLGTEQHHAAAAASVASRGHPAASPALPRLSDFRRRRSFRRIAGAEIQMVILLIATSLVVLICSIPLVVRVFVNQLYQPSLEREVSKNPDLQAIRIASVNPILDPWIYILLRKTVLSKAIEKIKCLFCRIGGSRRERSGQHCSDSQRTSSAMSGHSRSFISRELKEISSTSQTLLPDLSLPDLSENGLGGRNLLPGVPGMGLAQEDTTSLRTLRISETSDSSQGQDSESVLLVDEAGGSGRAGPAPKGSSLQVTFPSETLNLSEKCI

Take `C[C@H](NC(=O)c1cccc2ccn(Cc3ccc(-c4ccccc4)cc3)c12)c1ccc(C(=O)O)cc1` [Example 3, 4-[(1S)-1-({[1-(biphenyl-4-ylmethyl)-1H-indol-7-yl]carbonyl}amino)ethyl]benzoic acid]: the figures for the IC50 against rat EP4 receptor [1] and at EP4 receptor were 0.99 nM and 0.11 nM, respectively. Moreover, at rat EP4 receptor [2], the Ki – broadly, the equilibrium dissociation constant of an inhibitor or competing ligand from its target – was 0.76 nM.
Turning to `Cc1cc(C(=O)NC[C@H]2CC[C@H](C(=O)O)CC2)c2c(ccn2Cc2ccc3ccccc3n2)c1` [Example 96], the melting point – broadly, the temperature of the solid-liquid transition – was 244 to 245 °C (dec.). In addition, the “Inhibitory rate (%)” value at rat EP4 receptor [3] (dose 0.01 mg/kg) is recorded as 57%. Moreover, the Ki at rat EP4 receptor [2] is 1.7 nM.
On to `O=C(O)c1ccc(CNC(=O)c2cc(C(F)(F)F)cc3ccn(CCOc4ccc(Cl)cc4)c23)cc1` [Example 215], for which the melting point is 208 to 210 °C. Besides, at rat EP4 receptor [3] (dose 0.01 mg/kg), the “Inhibitory rate (%)” value is 71%. In addition, at rat EP4 receptor [2], the inhibition constant Ki came out at 2.6 nM.
Consider `Cc1cc(C(=O)NC[C@H]2CC[C@H](C(=O)O)CC2)c2c(ccn2Cc2cc3ccccc3cn2)c1` [Example 224], for which the melting point is 251 to 252 °C (dec.). For the same molecule, at rat EP4 receptor [3] (dose 0.003 mg/kg), the “Inhibitory rate (%)” value was found to be 71%. The same molecule yielded a Ki at rat EP4 receptor [2] of 2.1 nM.
As to `O=C(NC[C@H]1CC[C@H](C(=O)O)CC1)c1cc(C(F)(F)F)cc2ccn(Cc3ccc(Cl)cn3)c12` [Example 229], the melting point was 224 to 226 °C (dec.). Moreover, the affinity on rat EP4 receptor [2] corresponds to a Ki of 3.9 nM.
For `O=C(NC[C@H]1CC[C@H](C(=O)O)CC1)c1cc(C(F)(F)F)cc2ccn(Cc3cc4cc(Cl)ccc4o3)c12` [Example 231], the melting point fell in the range of 211 to 213 °C. The molecule further gave a Ki on rat EP4 receptor [2] of 1.4 nM.
